Assay results published in patent US20240165282A1, “CONFORMATIONAL CONSTRAINED SOMATOSTATIN RECEPTOR 3 PEPTIDE LIGANDS AND THEIR CONJUGATES AND USES THEREOF” (STARGET PHARMA LTD., priority 2021, published 2024).
*1 amine or outer side, *2 acyl side, *3 side chain or, on linkers, in order; H or OH if unused. Where a SMILES comes first, the peptide text is derived from it. Bridges are numbered along the chain shown (N, C = ends). [ ]: non-standard residue; d: D form. The star is where a group is joined. DOTA = O=C(O)CN1CCN(CC(=O)O)CCN(CC(=O)*)CCN(CC(=O)O)CC1; N(2-mercaptoethyl)Gly = O=C(CN(CCS[*:3])[*:1])[*:2]

Biological target: SSTR5 (Homo sapiens, UniProt P35346)
Assay: Radioligand binding, displacement of 125I-Tyr11-SRIF-14
Parameters: host or cells: Chem-1 (Rat ChemiSCREEN) cells, membrane preparation
In short: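 Assays ran at 25 °C in 25 mM HEPES pH 7.4 with 5 mM MgCl2, 1 mM CaCl2, 0.1% BSA and 1% DMSO. Filter-bound radioactivity gave IC50 by nonlinear least-squares regression.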

SSTR5, sequence (P35346 whole entry): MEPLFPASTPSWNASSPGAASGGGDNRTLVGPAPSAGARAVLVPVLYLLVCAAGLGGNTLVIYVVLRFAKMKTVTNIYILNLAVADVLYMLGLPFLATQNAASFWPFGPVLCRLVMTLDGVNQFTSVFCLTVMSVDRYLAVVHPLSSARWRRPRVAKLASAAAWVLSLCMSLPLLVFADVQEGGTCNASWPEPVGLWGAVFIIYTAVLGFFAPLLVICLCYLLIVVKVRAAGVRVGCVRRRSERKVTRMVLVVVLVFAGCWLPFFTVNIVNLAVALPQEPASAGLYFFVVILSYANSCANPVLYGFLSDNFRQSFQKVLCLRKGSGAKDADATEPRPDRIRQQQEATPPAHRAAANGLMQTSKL

In the case of `C[C@@H](O)[C@@H]1NC(=O)[C@H](CCCCN)NC(=O)[C@@H](Cc2c[nH]c3ccccc23)NC(=O)[C@H](Cc2ccccc2)NC(=O)[C@@H](NC(=O)[C@H](CCCNC(=N)N)NC(=O)[C@@H](Cc2ccccc2)NC(=O)CN2CCN(CC(=O)O)CCN(CC(=O)O)CCN(CC(=O)O)CC2)CSSCCN(CC(N)=O)C(=O)[C@H](Cc2ccccc2)NC1=O` [SEQ ID NO: 3, DOTA-D-Phe^1-Arg^2-Cys^3-Phe^4-D-Trp^5-Lys^6-Thr^7-Phe^8-NTEG^9-NH2 cyclo 3-9] ({DOTA}-[dF]RCF[dW]KTF[N(2-mercaptoethyl)Gly]-NH2; disulfide 3-9), the IC50 is reported as > 1000 nM, the Ki is reported as 660 nM and the “Hill coefficient (nH)” value (hSSTR-5) is reported as 1.57.
